Patent US10233426B2, “Method for inducing cardiac differentiation of pluripotent stem cell with low-molecular compounds” (KYOTO UNIVERSITY, priority 2014, dated 2019)

System: monkey ES cell line transfected with an αMHC promoter-driven GFP gene
Assay: Chemical screening: GFP fluorometry for cardiac differentiation of monkey ES cells
Type: cell-based, cynomolgus monkey
Conditions: for intensity of GFP fluorescence relative to control culture (KY02111 only, assigned to one): GFP fluorometry day 9
Description: Pluripotent stem cells were cultured in culture media to which the test compounds were added in different concentrations (0.3 μM, 1 μM, 3 μM and 10 μM) in early phase and late phase of differentiation of the cells. Cells from the culture were subjected to GFP fluorometry in accordance with the cardiac differentiation protocol shown in FIG. 1a. Besides the test compounds, 10 μM KY02111 was included in the culture media for the late phase differentiation. The intensity of GFP fluorescence determined in the cells from the control culture, which was cultured with no test compound other than KY02111, was assigned to one.
The scheme of chemical screening is illustrated in FIG. 1a. Compounds were screened for the ability of increasing GFP fluorescence compared with the control (KY02111 alone) using a monkey ES cell line transfected with an αMHC promoter-driven GFP gene (Minami et al., Cell Reports 2, 1448-1460, 2012, which is incorporated herein by reference). The ES cell line was derived from a monkey ES cell line (cynomolgus monkey CMK6.4) by transfecting the cells with a vector which expresses green fluorescent protein (GFP) under control by a promoter of α-MHC gene (a marker of cardiac differentiation). The cells were plated at 4.0×10^5 cells per well in 6 well plates (Asahi Glass/5816-006: Ezview culture plates) and cultured for nine days in an IMDM-based medium for cardiac differentiation (200 ml IMDM medium (Sigma 13390), with 50 ml calf serum (GIBCO 10099-141), 2.5 ml MEM non-essential amino acid solution (Sigma M7145), 2.5 ml penicillin-streptomycin ([…]), 2.5 ml 200 mM L-glutamine, 2 ul 2-mercaptoethanol (Sigma M7522), and 255 ul 5N NaOH). Each test compound was added to the medium at different concentrations in the early phase (day 0 to day 3) and the late phase (day 4 to day 7) of cardiac differentiation. Cells obtained from the culture on day 9 were subjected to GFP fluorometry with a Metamorph imaging system. […]

[1] = test compound 0.3 μM in Early phase (day 0 to day 3), 10 μM KY02111 in late phase
[2] = test compound 0.3 μM in Late phase (day 4 to day 7) with 10 μM KY02111
[3] = test compound 1 μM in Early phase (day 0 to day 3), 10 μM KY02111 in late phase
[4] = test compound 1 μM in Late phase (day 4 to day 7) with 10 μM KY02111
[5] = test compound 3 μM in Early phase (day 0 to day 3), 10 μM KY02111 in late phase
[6] = test compound 3 μM in Late phase (day 4 to day 7) with 10 μM KY02111
[7] = test compound 10 μM in Early phase (day 0 to day 3), 10 μM KY02111 in late phase
[8] = test compound 10 μM in Late phase (day 4 to day 7) with 10 μM KY02111

Row | SMILES | intensity of GFP fluorescence relative to control culture (KY02111 only, assigned to one) [1] | intensity of GFP fluorescence relative to control culture (KY02111 only, assigned to one) [2] | intensity of GFP fluorescence relative to control culture (KY02111 only, assigned to one) [3] | intensity of GFP fluorescence relative to control culture (KY02111 only, assigned to one) [4] | intensity of GFP fluorescence relative to control culture (KY02111 only, assigned to one) [5] | intensity of GFP fluorescence relative to control culture (KY02111 only, assigned to one) [6] | intensity of GFP fluorescence relative to control culture (KY02111 only, assigned to one) [7] | intensity of GFP fluorescence relative to control culture (KY02111 only, assigned to one) [8] | increase of cardiac differentiation (1 to 3 μM in late phase, alone or in combination with KY02111 (10 μM in late phase), FIG. 1e)
1 | CNC(=O)c1ccccc1Sc1ccc2c(/C=C/c3ccccn3)n[nH]c2c1 [Axitinib] | 0.64 | 0.95 | 0.02 | 0.25 | 0 | 0.05 | 0 | 0 | –
2 | OCCn1cc(-c2cnc3nnn(Cc4ccc5ncccc5c4)c3n2)cn1 [PF042I7903] | 1.02 | 1.09 | 0.99 | 1.3 | 0.91 | 0.82 | 0.62 | 0.78 | –
3 | O=c1[nH]c2ccccc2n1C1CCN(Cc2ccc(-c3nc4cc5[nH]cnc5cc4nc3-c3ccccc3)cc2)CC1 [Akt inhibitor 8] | 1.2 | 1.11 | 0.96 | 1.57 | 0.11 | 1.33 | 0 | 1.11 | –
4 | Cc1ccc(-n2nc(C(C)(C)C)cc2NC(=O)Nc2ccc(OCCN3CCOCC3)c3ccccc23)cc1 [BIRB796] | 1.2 | 1.05 | 0.9 | 0.81 | 0.95 | 0.55 | 0.08 | 0.29 | –
5 | Cc1cc(Nc2ncc3c(n2)N(C)C(=O)N(c2cc(NC(=O)c4cccc(C(F)(F)F)c4)ccc2C)C3)n(C)n1 [SC-1] | 0.16 | 0.14 | 0 | 0 | 0 | 0 | 0 | 0 | –
6 | CC(C)(O)/C=C/C(=O)[C@](C)(O)[C@H]1[C@H](O)C[C@@]2(C)[C@@H]3CC=C4[C@@H](C=C(O)C(=O)C4(C)C)[C@]3(C)C(=O)C[C@]12C [Cucurbitaonl] | 0.11 | 1.62 | 0 | 0 | 0 | 0 | 0 | 0 | –
7 | COc1cc([C@@H]2c3cc4c(cc3[C@H](O)[C@H]3COC(=O)[C@@H]23)OCO4)cc(OC)c1OC [PPP] | 0.2 | 0.39 | 0 | 0.2 | 0 | 0 | 0 | 0 | –
8 | N#C/C(=C/c1ccc(O)c(O)c1)C(=O)NCc1ccccc1 [AG490] | 1.5 | 0.92 | 0.59 | 1 | 0.79 | 1.1 | 0.72 | 1.33 | –
9 | Cc1c[nH]c(/C=C2\C(=O)Nc3ccccc32)c1CCC(=O)O [SU5402] | 0.09 | 0.89 | 0 | 1 | 0 | 0.46 | 0 | 0.06 | –
10 | CCN(CC)CCCCNc1ncc2cc(-c3cc(OC)cc(OC)c3)c(NC(=O)NC(C)(C)C)nc2n1 [PD173074] | 0.02 | 0.23 | 0 | 0.08 | 0 | 0 | 0 | 0 | –
11 | CN(C)S(=O)(=O)c1ccc2c(c1)/C(=C/c1cc3c([nH]1)CCCC3)C(=O)N2 [SU6656] | – | – | – | – | – | – | – | – | two- to five-fold
12 | CC(C)(C)c1ccc(S(=O)(=O)Nc2ccc(-n3ccnc3)cc2)cc1 [ISCK03] | 0.08 | 1.23 | 0 | 0.8 | 0 | 0.79 | 0 | 0.88 | –
13 | NC(=O)c1ccc(-c2nc(-c3ccccn3)c(-c3ccc4c(c3)OCO4)[nH]2)cc1 [5B431542] | 0.61 | 1.2 | 0.1 | 1.52 | 0 | 1.44 | 0 | 1.58 | –
14 | c1cc(-c2cnn3cc(-c4ccc(OCCN5CCCCC5)cc4)cnc23)ccn1 [Dorsomorphin] | 0.13 | 0.96 | 0.03 | 1.67 | 0 | 1.22 | 0 | 0.89 | –
